Experiments:
Settings in all cases: average where tested multiple times
BCAT2 [1] = target: T1, BCAT2 (Homo sapiens, UniProt O15382); test: BCAT2 in vitro enzyme inhibition assay (resazurin/diaphorase-coupled fluorescence); format: biochemical
T1 sequence (O15382 28-392): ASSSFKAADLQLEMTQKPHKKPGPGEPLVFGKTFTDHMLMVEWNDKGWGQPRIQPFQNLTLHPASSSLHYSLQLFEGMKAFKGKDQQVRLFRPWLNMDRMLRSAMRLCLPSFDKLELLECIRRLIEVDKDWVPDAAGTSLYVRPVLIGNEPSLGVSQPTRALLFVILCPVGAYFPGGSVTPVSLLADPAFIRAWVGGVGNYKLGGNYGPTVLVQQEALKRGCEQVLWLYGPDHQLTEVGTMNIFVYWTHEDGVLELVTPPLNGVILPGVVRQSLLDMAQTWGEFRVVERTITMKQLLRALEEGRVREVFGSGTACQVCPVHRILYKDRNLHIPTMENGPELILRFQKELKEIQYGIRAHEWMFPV
Method in brief: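 Coupled fluorescence readout: glutamate formed from L-leucine/α-ketoglutarate transamination drives GDH/NAD/diaphorase reduction of resazurin (Ex 540/Em 590). Human BCAT2 was first exposed 1 h at room temperature to compound, top final 100 μM in 3-fold, 10-point series; substrate reaction ran 1 h before SDS quench, in technical duplicate with DMSO max and enzyme-free min controls.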

hBCAT1 = target: T2, hBCAT1 (Homo sapiens, UniProt P54687); test: BCAT1 in vitro enzyme inhibition assay (resazurin/diaphorase-coupled fluorescence); format: biochemical
T2 sequence (P54687 1-386): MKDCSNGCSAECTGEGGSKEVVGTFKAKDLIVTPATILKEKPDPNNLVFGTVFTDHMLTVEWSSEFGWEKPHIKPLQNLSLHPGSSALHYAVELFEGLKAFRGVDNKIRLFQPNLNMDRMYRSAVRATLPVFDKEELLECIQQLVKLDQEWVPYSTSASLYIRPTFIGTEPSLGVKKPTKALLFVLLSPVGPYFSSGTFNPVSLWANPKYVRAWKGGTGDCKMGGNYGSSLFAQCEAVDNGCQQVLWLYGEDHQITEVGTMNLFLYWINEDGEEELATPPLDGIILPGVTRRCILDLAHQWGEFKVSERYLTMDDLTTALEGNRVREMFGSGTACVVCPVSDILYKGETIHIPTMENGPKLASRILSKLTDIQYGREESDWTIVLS
Method in brief: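 Ten-point, 3-fold compound series (top final 100 μM, delivered 1:50 from 50× DMSO stocks) tested against hBCAT1. Inhibition detected via diaphorase-coupled resazurin fluorescence, duplicate wells, with values from repeated runs averaged.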

BCAT2 [2] = target: T1, BCAT2; test: BCAT2 in vitro cell inhibition using engineered A549 cells (KMV cell assay, 13C6-KMV by LC-MS/MS); format: cell-based; design: The result was an engineered A549 cell line that expressed endogenous BCAT2; endogenous in cells; host or cells: A549 cells with MUT and BCAT1 knocked out by CRISPR/CAS9

| IC50 (BCAT2 [1]) [nM] | IC50 (hBCAT1) [nM] | IC50 (BCAT2 [2]) [nM] | SMILES |
| --- | --- | --- | --- |
| ≤ 100 | < 500 | ≤ 100 | O=C(N[C@H]1CCC[C@@H](n2c(-c3ccccc3F)nc3cnc(-c4ccccn4)cc32)[C@@H]1O)c1ncc(Cl)s1 [Example 242, 5-chloro-N-((1S,2R,3R)-3-(2-(2-fluorophenyl)-6-(pyridin-2-yl)-1H-imidazo[4,5-c]pyridin-1-yl)-2-hydroxycyclohexyl)thiazole-2-carboxamide] |
| ≤ 100 | < 500 | ≤ 100 | Cc1cnn(-c2cc3c(cn2)nc(CC(C)C)n3[C@@H]2CCC[C@H](NC(=O)c3ncc(Cl)s3)[C@H]2O)n1 [Example 243, 5-chloro-N-((1S,2R,3R)-2-hydroxy-3-(2-isobutyl-6-(4-methyl-2H-1,2,3-triazol-2-yl)-1H-imidazo[4,5-c]pyridin-1-yl)cyclohexyl)thiazole-2-carboxamide] |
| ≤ 100 | < 500 | ≤ 100 | O=C(N[C@H]1CCC[C@@H](n2c(-c3ccccc3F)nc3cnc(-c4ncccn4)cc32)[C@@H]1O)c1ncc(Cl)s1 [Example 245, 5-chloro-N-((1S,2R,3R)-3-(2-(2-fluorophenyl)-6-(pyrimidin-2-yl)-1H-imidazo[4,5-c]pyridin-1-yl)-2-hydroxycyclohexyl)thiazole-2-carboxamide] |
| ≤ 100 | < 500 | ≤ 100 | Cc1cnn(-c2cc3c(cn2)nc(-c2ccccc2F)n3[C@@H]2CCC[C@H](NC(=O)c3ncc(Cl)s3)[C@H]2O)n1 [Example 246, 5-chloro-N-((1S,2R,3R)-3-(2-(2-fluorophenyl)-6-(4-methyl-2H-1,2,3-triazol-2-yl)-1H-imidazo[4,5-c]pyridin-1-yl)-2-hydroxycyclohexyl)thiazole-2-carboxamide] |
| ≤ 100 | < 500 | ≤ 100 | O=C(N[C@H]1CCC[C@@H](n2c(-c3ccccc3F)nc3cnc(-c4ncco4)cc32)[C@@H]1O)c1ncc(Cl)s1 [Example 248, 5-chloro-N-((1S,2R,3R)-3-(2-(2-fluorophenyl)-6-(oxazol-2-yl)-1H-imidazo[4,5-c]pyridin-1-yl)-2-hydroxycyclohexyl)thiazole-2-carboxamide] |
| ≤ 100 | < 500 | ≤ 100 | CC(C)Cc1nc2cnc(-c3nc[nH]n3)cc2n1[C@@H]1CCC[C@H](NC(=O)c2ncc(Cl)s2)[C@H]1O [Example 250, 5-chloro-N-((1S,2R,3R)-2-hydroxy-3-(2-isobutyl-6-(1H-1,2,4-triazol-3-yl)-1H-imidazo[4,5-c]pyridin-1-yl)cyclohexyl)thiazole-2-carboxamide] |
| ≤ 100 | < 500 | ≤ 100 | O=C(N[C@H]1C[C@H](O)C[C@@H](n2c(-c3ccccc3F)nc3cnc(-c4nc[nH]n4)cc32)C1)c1ccc(Cl)s1 [Example 254, 5-chloro-N-((1R,3S,5S)-3-(2-(2-fluorophenyl)-6-(1H-1,2,4-triazol-3-yl)-1H-imidazo[4,5-c]pyridin-1-yl)-5-hydroxycyclohexyl)thiophene-2-carboxamide] |
| ≤ 100 | < 500 | ≤ 100 | CC(C)Cc1nc2cnc(-c3nc[nH]n3)cc2n1[C@@H]1C[C@@H](O)C[C@H](NC(=O)c2ncc(Cl)s2)C1 [Example 256, 5-chloro-N-((1R,3S,5S)-3-hydroxy-5-(2-isobutyl-6-(1H-1,2,4-triazol-3-yl)-1H-imidazo[4,5-c]pyridin-1-yl)cyclohexyl)thiazole-2-carboxamide] |
| ≤ 100 | < 500 | ≤ 100 | O=C(N[C@H]1C[C@H](O)C[C@@H](n2c(-c3ccccc3F)nc3cnc(-c4ncco4)cc32)C1)c1ncc(Cl)s1 [Example 260, 5-chloro-N-((1R,3S,5S)-3-(2-(2-fluorophenyl)-6-(oxazol-2-yl)-1H-imidazo[4,5-c]pyridin-1-yl)-5-hydroxycyclohexyl)thiazole-2-carboxamide] |
